Measurements taken from patent publication US6229029A, “11β-aryl substituted 14,17-ethanoestratriens, method for the production of these compounds and their use in the production of medicaments” (Schering Aktiengesellschaft, priority 1997, dated 2001).
pIC50: −log10 of the molar value.

Columns and labels:
[1] = tested on: bone (distal femur / proximal tibia) of ovariectomized rats; test: Bone studies in ovariectomized rats: bone density by pQCT; assay type: in vivo, rat; settings: for % of Action of E2 (bone density tibia) / Bone Density Tibia: Table 7, proximal tibia
[2] = tested on: trabecular bone (proximal tibia) of ovariectomized rats; test: Bone studies in ovariectomized rats: trabecular bone surface area (TB/TV), histological, proximal tibia; assay type: in vivo, rat; settings: 28 days
Procedure: 3-month-old female rats are ovariectomized and treated once daily with the test compound immediately after the operation for 28 days. The administration is done subcutaneously in castor oil/benzyl benzoate or arachis oil/ethanol. The animals are sacrificed on the day after the last administration, and femurs, tibiae and uteri are removed. The uteri are weighed, fixed and worked up for histological studies. The determination of the bone density is carried out ex vivo on prepared long bones with use of pQCT (Quantitative Computer Tomography). The measurements are performed at a distance of 5-7 mm from the ball of the joint on the distal femur or the proximal tibia.
As an alternative, the action on the bone is determined by measuring the trabecular bone surface area of the secondary spongiosa in histological preparations of the distal femur or the proximal tibia. The result is expressed as the proportion, in percent, of the trabecular bone surface area in the measured total bone surface area ([…]). The bone density that is measured with use of QCT and the trabecular bone surface area that is determined in the histological section correlate well to one another. A comparison of the two measurement variables is therefore permissible.
About 50% of the bone density of the animals is lost by the ovariectomy. […] In Table 4 and FIG. 2, the results of this test for doses of 0.1-100 μg/animal/day are presented. The bone density was measured on the distal femur; for comparison, the trabecular bone surface area in the proximal tibia was measured. The data that are contained in Table 4 mean specifically:
TB/TV trabecular bone surface area/total bone surface area; histologically determined
For compound B according to the invention, their bone-protecting action was also determined (Table 6). For this purpose, the parameter of TB/TV was determined, which, however, with respect to the informational value for the bone-protecting activity correlates well to the parameter of BMD-qCT that is determined for compounds A and V. This can be ascertained from Table 4; both parameters were determined for compound A.

bone / uterus of rats = test: Dissociation of bone action/uterus action (FIG. 7); assay type: in vivo, rat; settings: bone action vs uterus epithelial height, relative to 17β-estradiol
Excerpt: There, for compounds A, B and V, their bone-protecting actions are compared to the action of estrogen on the uterus (parameter: uterus epithelial height) as a function of dosage, in each case relative to the action of 17β-estradiol.

human estrogen receptor = biological target: T1, human estrogen receptor (Homo sapiens, UniProt P03372); test: Transactivation assay in HeLa cells (antiestrogenic action, vit-TK-CAT reporter); assay type: cell-based; settings: in the presence of 0.1 nM estradiol, read-out: Antagonism IC50, HELA
T1 construct: expressed in transfected cells; host or cells: HeLa cells
T1 sequence (P03372 1-595): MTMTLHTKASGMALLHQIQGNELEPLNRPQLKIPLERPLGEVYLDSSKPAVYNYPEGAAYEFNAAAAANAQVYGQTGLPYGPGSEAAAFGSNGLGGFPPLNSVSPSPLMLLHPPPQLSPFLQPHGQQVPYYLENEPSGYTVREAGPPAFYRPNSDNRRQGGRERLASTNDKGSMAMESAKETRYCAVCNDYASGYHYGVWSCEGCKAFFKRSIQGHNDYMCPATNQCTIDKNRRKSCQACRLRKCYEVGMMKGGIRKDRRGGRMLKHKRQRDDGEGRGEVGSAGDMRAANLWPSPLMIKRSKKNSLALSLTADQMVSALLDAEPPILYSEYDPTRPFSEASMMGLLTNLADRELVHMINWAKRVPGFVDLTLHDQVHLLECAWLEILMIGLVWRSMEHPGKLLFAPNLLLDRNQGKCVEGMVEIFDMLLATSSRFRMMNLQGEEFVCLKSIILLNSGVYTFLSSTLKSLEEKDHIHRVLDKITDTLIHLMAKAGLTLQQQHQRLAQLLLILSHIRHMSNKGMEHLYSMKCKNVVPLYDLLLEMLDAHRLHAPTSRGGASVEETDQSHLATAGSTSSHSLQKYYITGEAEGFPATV

uterus of infant rats [3] = test: Uterus growth test on infant rats (estrogenic action); assay type: in vivo, rat; settings: for Epithelial Height % E2 / Uterus Weight % E2: 3 days, infant rats; for estrogenic action in the uterus (in words): uterus growth test
Excerpt: (§1) The influence of the compounds according to the invention on the uterus was examined in the uterus growth test (estrogenic action) and in the anti-uterus growth test (antiestrogenic action), both performed on infant rats.
In infant animals, both uterus and vagina show one of the estrogenic activity-dependent weight increases in their treatment with an estrogenically active substance. In the uterus, under estrogenic action, moreover, it results in a proliferation and height increase of the luminal epithelium.
Immature, normal rats (body weight 40-50 g) receive the substance s.c. over 3 days (d1-d3). On day 4 (d4), the animals are sacrificed with CO2. The uteri are prepared outside and weighed. A piece of the uterus, preferably a uterine horn, is set in formaldehyde for the histological evaluation and embedded in paraffin. The stimulation of the organ weights (relative to mg/100 g of body weight) and the epithelial height are indicated in percentage stimulation in comparison to the reference compound 17β-estradiol. (Substitution dose E2 0.3 μg/animal).

uterus of infant rats [4] = test: Anti-uterus growth test in infant rats (antiestrogenic action); assay type: in vivo, rat; settings: with 0.3 μg/animal/day 17β-estradiol
Excerpt: as §1
The uterus of infant estrogen-substituted rats can be used as a test model to detect a direct action of substances with antiestrogenic properties. The parameter of the estrogenic action is the uterus growth that is induced by estradiol in infant rats and that is inhibited by simultaneous administration of a substance with antiestrogenic action.
The test substances are treated s.c. on 3 successive days (d1-d3) in combination with a substitution dose of 0.3 μg/animal/day of 17β-estradiol. As a positive control, 17β-estradiol alone is used; the vehicle group is used as a negative control. On day 4 (d4), the animals are sacrificed, uteri and vaginae are prepared outside and weighed. The organ weights are converted into mg/100 g of body weight, and then the mean and the standard deviation for each dosage are calculated. The inhibition of the uterus or vaginal growth that is induced by 17β-estradiol is indicated in % as inhibition.

estrogen receptors = biological target: T2, estrogen receptors (Homo sapiens, UniProt P03372); test: Transactivation assay in HeLa cells (partial estrogenic action, rPR-TK); assay type: cell-based; settings: rPR-TK reporter, read-out: Agonism HELA (rPR-TK)
T2 construct: expressed in transfected cells; host or cells: HeLa cells
Procedure: The partial estrogenic action was also determined by transactivation assays. HeLa cells were […] with estrogen receptors and a reporter gene, which consists of the estrogen-response element of the progesterone receptor and the CAT-gene. The test was performed as described: Savouret et al., EMBO J. 10, 1875-1883 (1991).

[5] = Table 4, distal femur, 0.3 μg/animal/day s.c., 28 days
[6] = Table 5, proximal tibia, 0.3 μg/animal/day s.c., 28 days
[7] = 0.3 μg/animal/day s.c., 28 days
[8] = Table 6, tibia, 0.3 μg/animal/day s.c.
[9] = Table 6, tibia, 1 μg/animal/day s.c.
[10] = Table 6, tibia, 10 μg/animal/day s.c.
[11] = Table 6, tibia, 100 μg/animal/day s.c.
[12] = 100 μg/animal/day s.c., 28 days
[13] = 250 μg/animal/day s.c., 28 days

C[C@]12CC[C@@H]3c4ccc(O)cc4CC[C@H]3[C@@H]1CC[C@@H]2O [17β-estradiol, reference compound]
% of Action of E2 (bone density femur) [1, 5]: 100%
Bone Density Femur [1, 5]: 361.7 mg Ca/ccm
% of Action of E2 (bone density) [1, 6]: 100%
Bone Density [1, 6]: 375.2 mg Ca/ccm
% of Action of E2 (bone density tibia) [1, 7]: 100%
Bone Density Tibia [1, 7]: 402.9 mg Ca/ccm
TB/TV (Tibia) ([2]; Table 4, proximal tibia, 0.3 μg/animal/day s.c.): 34.0%
% of Action of E2 (TB/TV) [2, 8]: 100%
TB/TV (Tibia) [2, 8]: 26.0%

C[C@]12C[C@H](c3ccc(OCCCCC[S+]([O-])Cc4ccccn4)cc3)[C@@H]3c4ccc(O)cc4CC[C@H]3[C@]13CC[C@@]2(O)CC3 (stereo partly drawn) [Compound B, 14α,17α-ethano-11β-{4-[5-(2-pyridinomethylsulfinyl)pentyloxy]phenyl}-1,3,5(10)-estratriene-3,17β-diol]
dissociation of bone-protecting action from estrogen action on the uterus (in words) (bone / uterus of rats): considerably dissociated
pIC50 (human estrogen receptor): 9.52
Epithelial Height % E2 (uterus of infant rats [3]; 0.01 mg/kg s.c.): 4 % E2
Uterus Weight % E2 (uterus of infant rats [3]; 0.01 mg/kg s.c.): 3 % E2
Epithelial Height % E2 (uterus of infant rats [3]; 0.1 mg/kg s.c.): 19 % E2
Uterus Weight % E2 (uterus of infant rats [3]; 0.1 mg/kg s.c.): 31 % E2
Epithelial Height % E2 (uterus of infant rats [3]; 1 mg/kg s.c.): 18 % E2
Uterus Weight % E2 (uterus of infant rats [3]; 1 mg/kg s.c.): 14 % E2
Epithelial Height % E2 (uterus of infant rats [3]; 10 mg/kg s.c.): 13 % E2
Uterus Weight % E2 (uterus of infant rats [3]; 10 mg/kg s.c.): 6 % E2
estrogenic activity relative to compound V (in words) (uterus of infant rats [3]; s.c., in the considered dose range, vs compound V): approximately half as strongly estrogenically active
estrogenic action in the uterus (in words) (uterus of infant rats [3]; s.c.): low estrogenic action
Uterus Weight % of Inhibition (uterus of infant rats [4]; 0.1 mg/kg s.c.): 32%
Uterus Weight % of Inhibition (uterus of infant rats [4]; 1 mg/kg s.c.): 83%
Uterus Weight % of Inhibition (uterus of infant rats [4]; 10 mg/kg s.c.): 100%
Emax (estrogen receptors): 50%
% of Action of E2 (TB/TV) [2, 9]: 52%
TB/TV (Tibia) [2, 9]: 19.6%
% of Action of E2 (TB/TV) [2, 10]: 47%
TB/TV (Tibia) [2, 10]: 18.9%
% of Action of E2 (TB/TV) [2, 11]: 45%
TB/TV (Tibia) [2, 11]: 18.6%

C[C@]12C[C@H](c3ccc(OCCCCC[S+]([O-])Cc4ccccn4)cc3)[C@@H]3c4ccc(O)cc4CC[C@H]3[C@@H]1CC[C@@H]2O (stereo partly drawn) [Compound V, reference compound]
dissociation of bone-protecting action from estrogen action on the uterus (in words) (bone / uterus of rats): the two curves coincide
Epithelial Height % E2 (uterus of infant rats [3]; 0.03 mg/kg s.c.): 18 % E2
Uterus Weight % E2 (uterus of infant rats [3]; 0.03 mg/kg s.c.): 28 % E2
Epithelial Height % E2 (uterus of infant rats [3]; 0.3 mg/kg s.c.): 33 % E2
Uterus Weight % E2 (uterus of infant rats [3]; 0.3 mg/kg s.c.): 32 % E2
Epithelial Height % E2 (uterus of infant rats [3]; 3 mg/kg s.c.): 27 % E2
Uterus Weight % E2 (uterus of infant rats [3]; 3 mg/kg s.c.): 19 % E2
estrogenic action in the uterus (in words) (uterus of infant rats [3]; s.c.): low estrogenic action
Uterus Weight % of Inhibition (uterus of infant rats [4]; 0.3 mg/kg s.c.): 57%
Emax (estrogen receptors): 37%
% of Action of E2 (bone density tibia) ([1]; 10 μg/animal/day s.c., 28 days): 40%
Bone Density Tibia ([1]; 10 μg/animal/day s.c., 28 days): 337.3 mg Ca/ccm
% of Action of E2 (bone density tibia) [1, 12]: 34.4%
Bone Density Tibia [1, 12]: 331.2 mg Ca/ccm
% of Action of E2 (bone density tibia) [1, 13]: 74%
Bone Density Tibia [1, 13]: 374.3 mg Ca/ccm
dose with which an action of about 80% of 17β-estradiol on trabecular bone is achieved ([1]; proximal tibia, s.c.): 250 μg/animal/day
